The conditions of the series: Liquid, Closed cell (Static) method.

Numbers after ± are expanded uncertainties.

In general, vapor or sublimation pressure refers to the equilibrium pressure above the liquid or solid.

`CC(C)(N)CO` [2-amino-2-methylpropan-1-ol]: the “vapor or sublimation pressure” value is, setting by setting: (293.29 K) 0.0415 ± 0.001 kPa; (303.35 K) 0.0975 ± 0.0019 kPa; (313.24 K) 0.2191 ± 0.0028 kPa; (323.25 K) 0.4556 ± 0.0048 kPa; (332.57 K) 0.8745 ± 0.0082 kPa; (343.18 K) 1.659 ± 0.011 kPa. Further, the “vapor or sublimation pressure” value is, setting by setting: (353.17 K) 2.933 ± 0.014 kPa; (363.1 K) 4.987 ± 0.019 kPa; (373 K) 8.142 ± 0.025 kPa.

Consider `CN(C)CCCO` [3-dimethylamino-1-propanol], for which the “vapor or sublimation pressure” value by setting is: (283.15 K) 0.007 ± 0.0003 kPa; (293.14 K) 0.016 ± 0.0006 kPa; (303.09 K) 0.0346 ± 0.0009 kPa; (313.08 K) 0.0707 ± 0.0014 kPa; (323.28 K) 0.1418 ± 0.0021 kPa; (333.12 K) 0.2604 ± 0.0031 kPa. The “vapor or sublimation pressure” value was 0.4742 ± 0.005 kPa (343.12 K), 1.419 ± 0.01 kPa (363.17 K) and 2.315 ± 0.012 kPa (373.1 K).

The values above are taken from the NIST ThermoML archive (doi:10.1016/j.jct.2010.04.015).
